{"source": "patent US20230413810A1", "about": "“SANITISING FORMULATION” (Lumendo AG, priority 2020, published 2023)", "format_in_all_cases": "cell-based", "key": {"[1]": {"tested_on": "Staphylococcus aureus (ATCC 6538)", "assay": "Direct contact test on glass plates, Log10 reduction of S. aureus (CFU/mL)", "procedure": "The anti-microbial-retaining hydrogel formulation was prepared by the addition of Tetronic® 1107 tetramethacrylate (12.64% w/w), prepared according to Example 6, to glycerol (29.48% w/w). Then triethanolamine (0.84% w/w) was added in water (7.58% w/w), diphenyliodonium hexafluorophosphate (0.067% w/w) and 4-(diphenylphosphino)benzoic acid (0.166% w/w) were added in ethanol (8.16% w/w) and a specified amount of anti-microbial agent was added in PBS buffer ×1 (40.01% w/w). The mixture was placed into a thermoshaker and heated and shaken (50° C., 1200 rpm) for 20 minutes. Next, ethyl (2,4,6-trimethylbenzoyl) phenylphosphinate (0.31% w/w) and eosin Y (0.00125% w/w) were added to the mixture in ethanol (4.01% w/w) and the solution was mixed at room temperature for 20 seconds.\nA 15 mL falcon tube containing 5 mL of BHI medium was inoculated with Staphylococcus aureus (ATCC 6538) and incubated overnight at 37° C. on a shaker (140 rpm). On the next day, a 15 mL falcon tube containing 5 mL BHI medium was inoculated with 100 μL of the overnight culture and incubated at 37° C. for 3.5 hours at 140 rpm.\nGlass plates (18 mm×18 mm) were added with anti-microbial-retaining hydrogel formulation (50 μL) and covered with another glass plate (18 mm×18 mm) in the well of a 6-well plate. Samples were polymerized by the light from the laminar flow hood for 30 minutes. […]\nS. aureus cultures were diluted to an OD600 (optical density at λ=600 nm) of 0.2 and 50 μL added to the glass plates (18 mm×18 mm) covered with the anti-microbial retaining hydrogel formulation of the present invention. Samples were covered with a glass plate (18 mm×18 mm) and incubated at 37° C. for 60 minutes. Bacteria were recovered by addition of 1 mL of BHI medium to each well and manually shaking the plate for 30 seconds. From each solution a four times ten-fold dilution series was prepared, resulting in 5 concentrations (each time adding 20 μL of the previous solution to 180 μL of PBS). A BHI agar plate was divided into 5 sectors and from each dilution, three drops of 10 μL were added to one sector. The plates were incubated overnight at 37° C. From the dilution containing 3-30 colonies, the CFU/mL (colony forming units per mL) were calculated and recorded.\nSamples were prepared as triplicates. As negative controls, glass plates with no hydrogel and with hydrogel but no anti-microbial agent were prepared. As a control group, glass plates were added with stock solutions of the appropriate disinfectant in PBS (50 μL) at the same concentration as in the hydrogel.\nFor the washing of samples, the polymerized hydrogel sample was washed with 1 mL PBS solution, after which the PBS solution was removed. The sample was let air dry for 15 minutes before bacterial was then applied as described above."}, "[2]": {"tested_on": "P. aeruginosa", "assay": "Direct contact test on glass plates, Log10 reduction of P. aeruginosa"}, "[3]": {"tested_on": "Staphylococcus aureus (ATCC 6538)", "assay": "Direct contact test on glass plates, Log10 reduction of S. aureus (CFU/mL)", "remark": "listed apart in the source"}, "[4]": {"conditions": "modified anti-microbial agents 1% w/w in hydrogel formulation according to Example 22"}, "[5]": {"conditions": "DDAC 0.1% w/w in polymerized hydrogel vs other sanitizing agents on glass surfaces, 0 washes"}, "[6]": {"conditions": "DDAC 0.1% w/w in polymerized hydrogel vs other sanitizing agents on glass surfaces, 5 washes with 1 mL water"}, "[7]": {"conditions": "unmodified anti-microbial agents 0.1% w/w in hydrogel (Sterilium with no hydrogel), 0 washes with 1 mL water"}, "[8]": {"conditions": "unmodified anti-microbial agents 0.1% w/w in hydrogel (Sterilium with no hydrogel), 5 washes with 1 mL water"}, "[9]": {"conditions": "unmodified anti-microbial agents 1.0% w/w in hydrogel (Sterilium with no hydrogel), 0 washes with 1 mL water"}, "[10]": {"conditions": "unmodified anti-microbial agents 1.0% w/w in hydrogel (Sterilium with no hydrogel), 5 washes with 1 mL water"}}, "data": [{"compound": "2-(N,N,N-Cetylmethylbenzylammonium)ethyl methacrylate bromide", "values": [{"measurement": "Log10 reduction of S. aureus", "setting": "[1]; [4]", "value": ">2", "unit": "Log10"}, {"measurement": "Log10 reduction of P. aeruginosa", "setting": "[2]; [4]", "value": "<1", "unit": "Log10"}]}, {"compound": "2-(N,N,N-Dodecyldimethylammonium)ethyl methacrylate bromide", "values": [{"measurement": "Log10 reduction of S. aureus", "setting": "[1]; [4]", "value": 3, "unit": "Log10"}, {"measurement": "Log10 reduction of P. aeruginosa", "setting": "[2]; [4]", "value": 1, "unit": "Log10"}]}, {"compound": "2-(N,N,N-dodecylmethylbenzylammonium)ethyl methacrylate bromide", "values": [{"measurement": "Log10 reduction of S. aureus", "setting": "[1]; [4]", "value": ">4", "unit": "Log10"}, {"measurement": "Log10 reduction of P. aeruginosa", "setting": "[2]; [4]", "value": 3, "unit": "Log10"}]}, {"compound": "9-(N,N,N-Benzylbutylmethylammonium)nonyl methacrylate bromide", "values": [{"measurement": "Log10 reduction of S. aureus", "setting": "[1]; [4]", "value": "<1", "unit": "Log10"}, {"measurement": "Log10 reduction of P. aeruginosa", "setting": "[2]; [4]", "value": 1, "unit": "Log10"}]}, {"compound": "12-(N,N,N-Benzylbutylmethylammonium)dodecyl methacrylate bromide", "values": [{"measurement": "Log10 reduction of S. aureus", "setting": "[1]; [4]", "value": ">4", "unit": "Log10"}, {"measurement": "Log10 reduction of P. aeruginosa", "setting": "[2]; [4]", "value": 1, "unit": "Log10"}]}, {"compound": "12-(N,N,N-Butyldimethylammonium)dodecyl methacrylate bromide", "values": [{"measurement": "Log10 reduction of S. aureus", "setting": "[1]; [4]", "value": ">1", "unit": "Log10"}, {"measurement": "Log10 reduction of P. aeruginosa", "setting": "[2]; [4]", "value": 1, "unit": "Log10"}]}, {"compound": "16-(N,N,N-Benzylbutylmethylammonium)cetyl methacrylate bromide", "values": [{"measurement": "Log10 reduction of S. aureus", "setting": "[1]; [4]", "value": ">4", "unit": "Log10"}, {"measurement": "Log10 reduction of P. aeruginosa", "setting": "[2]; [4]", "value": "<1", "unit": "Log10"}]}, {"compound": "C=C(C)C(=O)OCCOCC[n+]1ccc(CCCCCCCCCCCCC)cc1.[Cl-]", "note": "[2-(4-Tridecylpyridin-1-uim)ethoxyethyl methacrylate chloride]", "values": [{"measurement": "Log10 reduction of S. aureus", "setting": "[1]; [4]", "value": ">4", "unit": "Log10"}, {"measurement": "Log10 reduction of P. aeruginosa", "setting": "[2]; [4]", "value": 1, "unit": "Log10"}]}, {"compound": "C=C(C)C(=O)OCCOCC[n+]1ccc(CCCCCCCCCCCCCCCCC)cc1.[Cl-]", "note": "[2-(4-heptadecylpyridin-1-uim)ethoxyethyl methacrylate chloride]", "values": [{"measurement": "Log10 reduction of S. aureus", "setting": "[1]; [4]", "value": ">1", "unit": "Log10"}, {"measurement": "Log10 reduction of P. aeruginosa", "setting": "[2]; [4]", "value": "<1", "unit": "Log10"}]}, {"compound": "C=C(C)C(=O)OCCOCC[N+](C)(C)CCCCCCCCCCCCCCCC.[Cl-]", "note": "[2-(N,N,N-Cetyldimethylammonium)ethoxyethyl methacrylate chloride]", "values": [{"measurement": "Log10 reduction of S. aureus", "setting": "[1]; [4]", "value": ">1", "unit": "Log10"}, {"measurement": "Log10 reduction of P. aeruginosa", "setting": "[2]; [4]", "value": ">1", "unit": "Log10"}]}, {"compound": "C=C(C)C(=O)OCC[N+](C)(C)CCOCCOc1ccc(C(C)(C)CC(C)(C)C)cc1.[Cl-]", "note": "[2-(methacryloyloxy)-N,N-dimethyl-N-(2-(2-(4-(2,4,4-trimethylpentan-2-yl)phenoxy)ethoxy)ethyl)ethan-1-aminium chloride]", "values": [{"measurement": "Log10 reduction of S. aureus", "setting": "[1]; [4]", "value": ">4", "unit": "Log10"}, {"measurement": "Log10 reduction of S. aureus", "setting": "[3]; 1% w/w in hydrogel, 0 washes with 1 mL water", "value": ">4", "unit": "Log10"}, {"measurement": "Log10 reduction of S. aureus", "setting": "[3]; 1% w/w in hydrogel, 5 washes with 1 mL water", "value": ">3", "unit": "Log10"}, {"measurement": "Log10 reduction of S. aureus", "setting": "[3]; 1% w/w in hydrogel, 20 washes with 1 mL water", "value": 4, "unit": "Log10"}, {"measurement": "Log10 reduction of S. aureus", "setting": "[3]; 1% w/w in hydrogel, 2 hours soaking in water", "value": ">3", "unit": "Log10"}, {"measurement": "Log10 reduction of P. aeruginosa", "setting": "[2]; [4]", "value": 1, "unit": "Log10"}]}, {"compound": "CC(C)O", "note": "[60% Isopropanol, Isopropanol]", "values": [{"measurement": "Log10 reduction of S. aureus", "setting": "[3]; [5]", "value": ">4", "unit": "Log10"}, {"measurement": "Log10 reduction of S. aureus", "setting": "[3]; [6]", "value": "<1", "unit": "Log10"}]}, {"compound": "CCO", "note": "[70% Ethanol, Ethanol]", "values": [{"measurement": "Log10 reduction of S. aureus", "setting": "[3]; [5]", "value": ">4", "unit": "Log10"}, {"measurement": "Log10 reduction of S. aureus", "setting": "[3]; [6]", "value": "<1", "unit": "Log10"}]}, {"compound": "CC(C)(C)CC(C)(C)c1ccc(OCCOCC[N+](C)(C)Cc2ccccc2)cc1", "note": "[Anti-microbial agent on glass surface, benzethonium chloride]", "values": [{"measurement": "Log10 reduction of S. aureus", "setting": "[1]; benzethonium chloride 0.1% w/w, on glass with no hydrogel or in polymerized hydrogel, 20 washes with 1 mL water", "value": "<1", "unit": "Log10"}, {"measurement": "Log10 reduction of S. aureus", "setting": "[3]; benzethonium chloride 0.1% w/w, on glass with no hydrogel or in polymerized hydrogel, 0 washes with 1 mL water", "value": ">4", "unit": "Log10"}, {"measurement": "Log10 reduction of S. aureus", "setting": "[3]; benzethonium chloride 0.1% w/w, on glass with no hydrogel or in polymerized hydrogel, 5 washes with 1 mL water", "value": "<1", "unit": "Log10"}, {"measurement": "Log10 reduction of S. aureus", "setting": "[3]; benzethonium chloride 0.1% w/w, on glass with no hydrogel or in polymerized hydrogel, 10 washes with 1 mL water", "value": "<1", "unit": "Log10"}]}, {"compound": "CC(C)(C)CC(C)(C)c1ccc(OCCOCC[N+](C)(C)Cc2ccccc2)cc1", "note": "[Benzethonium chloride, benzethonium chloride]", "values": [{"measurement": "Log10 reduction of S. aureus", "setting": "[1]; 0.1% w/w in hydrogel (Example 28), 20 washes with 1 mL water", "value": 2, "unit": "Log10"}, {"measurement": "Log10 reduction of S. aureus", "setting": "[3]; 0.1% w/w in hydrogel (Example 28), 0 washes with 1 mL water", "value": 2, "unit": "Log10"}, {"measurement": "Log10 reduction of S. aureus", "setting": "[3]; 0.1% w/w in hydrogel (Example 28), 5 washes with 1 mL water", "value": 3, "unit": "Log10"}, {"measurement": "Log10 reduction of S. aureus", "setting": "[3]; 0.1% w/w in hydrogel (Example 28), 2 hours soaking in water", "value": 3, "unit": "Log10"}, {"measurement": "Log10 reduction of S. aureus", "setting": "[3]; [7]", "value": 2, "unit": "Log10"}, {"measurement": "Log10 reduction of S. aureus", "setting": "[3]; [8]", "value": 3, "unit": "Log10"}]}, {"compound": "N=C(NCCCCCCNC(=N)NC(=N)Nc1ccc(Cl)cc1)NC(=N)Nc1ccc(Cl)cc1", "note": "[Chlorohexidine]", "values": [{"measurement": "Log10 reduction of S. aureus", "setting": "[3]; [7]", "value": ">4", "unit": "Log10"}, {"measurement": "Log10 reduction of S. aureus", "setting": "[3]; [8]", "value": ">4", "unit": "Log10"}, {"measurement": "Log10 reduction of P. aeruginosa", "setting": "[2]; [9]", "value": ">2", "unit": "Log10"}, {"measurement": "Log10 reduction of P. aeruginosa", "setting": "[2]; [10]", "value": ">4", "unit": "Log10"}]}, {"compound": "CCCCCCCCCC[N+](C)(C)CCCCCCCCCC.[Cl-]", "note": "[Didecyldimethylammonium chloride, didecyldimethylammonium chloride]", "values": [{"measurement": "Log10 reduction of S. aureus", "setting": "[3]; [7]", "value": ">3", "unit": "Log10"}, {"measurement": "Log10 reduction of S. aureus", "setting": "[3]; [8]", "value": ">4", "unit": "Log10"}, {"measurement": "Log10 reduction of P. aeruginosa", "setting": "[2]; [9]", "value": 2, "unit": "Log10"}, {"measurement": "Log10 reduction of P. aeruginosa", "setting": "[2]; [10]", "value": ">4", "unit": "Log10"}]}, {"compound": "Benzalkonium chloride", "values": [{"measurement": "Log10 reduction of S. aureus", "setting": "[3]; [7]", "value": 2, "unit": "Log10"}, {"measurement": "Log10 reduction of S. aureus", "setting": "[3]; [8]", "value": ">4", "unit": "Log10"}, {"measurement": "Log10 reduction of P. aeruginosa", "setting": "[2]; [9]", "value": ">1", "unit": "Log10"}, {"measurement": "Log10 reduction of P. aeruginosa", "setting": "[2]; [10]", "value": ">4", "unit": "Log10"}]}]}
